Data reported in patent publication US12194080B2, “Methods for identification, assessment, prevention, and treatment of metabolic disorders using PM20D1 and N-lipidated amino acids” (Dana-Farber Cancer Institute, Inc., priority 2015, dated 2025).

Legend:
[1] = system: primary inguinal fat cells, primary BAT cells, C2C12 cells, and U2OS cells; test: Uncoupled respiration cellular assays (variety of cell types); assay type: cell-based; conditions: N-acyl amino acids at 10-100 uM
Procedure: (§1) Cellular oxygen consumption rates were determined using an XF24 Extracellular Flux Analyzer (Seahorse Biosciences). Oligomycin was purchased from EMD Millipore, and FCCP and rotenone were purchased from Sigma. C2C12 or U2OS cells were seeded at 30,000 or 50,000 cells/well, respectively in an XF24 cell culture microplate (V7-PS, Seahorse Bioscience) and analyzed the following day. Primary iWAT or BAT adipocytes were seeded at 15,000 cells/well, differentiation was induced the following day as described, and the cells were analyzed on day 5. On the day of analysis, the cells were washed once with Seahorse respiration buffer (8.3 g/1 DMEM, 1.8 g/l NaCl, 1 mM pyruvate, 20 mM glucose, pen/strep), placed in 0.5 ml Seahorse respiration buffer, and incubated in a CO2-free incubator for 1 hr. Port injection solutions were prepared as follows (final concentrations in assay in parentheses): 10 μM oligomycin (1 μM final), […] amino acid (50 μM final), 2 μM FCCP (0.2 μM final), and 30 μM rotenone (3 μM final). The Seahorse program was run as follows: basal measurement, 3 cycles; inject port A (oligomycin), 3 cycles; inject port B (compounds), 8 cycles; inject port C (FCCP), 3 cycles; inject port D (rotenone), 3 cycles. Each cycle consisted of mix 4 min, wait 0 min, and measure 2 min. For data expressed as a percentage of oligomycin-treated basal, the respiration at cycle 6 was normalized to 100%, and the maximum respiration at any time point between cycles 7 and 15 inclusive was used.

C2C12 cells = test: Cellular oxygen consumption rate (uncoupled respiration), C2C12 cells; assay type: cell-based, mouse; conditions: 50 μM, after oligomycin 1 μM
Procedure: C2C12, U2O5, and 293A cells were cultured in DMEM with 10% FBS and pen/strep. Primary inguinal (iWAT) and brown (BAT) adipocytes were obtained as follows. The stromal-vascular fraction of inguinal (iWAT) pad from 4-12 week old male mice was dissected, minced, and digested for 45 min. at 37° C. in PBS containing 10 mM CaCl2, 2.4 U/ml dispase II (Roche), and 1.5 U/ml collagenase D (Roche). The stromal-vascular fraction of brown fat (BAT) pads from newborn (P1-P14) pups was dissected, minced, and digested for 45 min at 37° C. in PBS containing 1.3 mM CaCl2, 120 mM NaCl, 5 mM KCl, 5 mM glucose, 100 mM HEPES, 4% BSA, and 1.5 mg/ml collagenase B (Roche). Digested tissue was diluted with adipocyte culture media (DMEM/F-12, GlutaMAX™ supplement, Life Technologies, with 10% FBS and pen/strep) and centrifuged (600×g for 10 min.). The pellet was resuspended in 10 ml adipocyte culture media, strained through a 40 μm filter, and plated. Differentiation was induced by application of an adipogenic cocktail containing 5 μg/ml insulin (Sigma), 5 μM dexamethasone (Sigma), 250 μM isobutylmethylxanthine (Sigma), and 1 μM rosiglitazone (Cayman) for 2 days. Two days after induction, cells were maintained in adipocyte culture media containing 5 μg/ml insulin and 1 μM rosiglitazone.
as §1

mouse PM20D1 [2] = target: T1, mouse PM20D1 (Mus musculus, UniProt Q8C165); test: In vitro PM20D1-catalyzed N-acyl amino acid hydrolysis; assay type: biochemical; conditions: N-acyl amide substrate 100 μM
T1 construct: Full-length mouse Pm20d1 cDNA (GE Dharmacon) was subcloned with an in-frame C-terminal 6× His and FLAG® tag; made in house; host or cells: 293A (HEK293A) cells stably infected with retrovirus
T1 sequence (Q8C165 25-503): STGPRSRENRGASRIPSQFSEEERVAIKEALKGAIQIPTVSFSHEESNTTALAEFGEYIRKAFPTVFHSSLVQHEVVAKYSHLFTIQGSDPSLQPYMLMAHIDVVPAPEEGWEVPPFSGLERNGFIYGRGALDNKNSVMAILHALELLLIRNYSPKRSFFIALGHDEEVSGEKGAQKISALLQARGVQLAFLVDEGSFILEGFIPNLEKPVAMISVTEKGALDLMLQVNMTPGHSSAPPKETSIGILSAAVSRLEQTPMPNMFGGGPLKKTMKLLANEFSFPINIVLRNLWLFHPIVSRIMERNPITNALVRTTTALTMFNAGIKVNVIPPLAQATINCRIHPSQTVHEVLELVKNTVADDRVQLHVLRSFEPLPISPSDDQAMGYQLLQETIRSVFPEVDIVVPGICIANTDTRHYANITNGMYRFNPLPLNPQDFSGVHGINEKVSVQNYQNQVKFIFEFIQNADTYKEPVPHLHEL
Procedure: (§2) The concentrated media was centrifuged to remove debris (600×g, 10 min, 4° C.) and the supernatant containing PM20D1-flag was decanted into a new tube. PM20D1-Flag was immunoaffinity purified overnight at 4° C. from the concentrated media using magnetic Flag-M2 beads (Sigma Aldrich). The beads were collected, washed three times in PBS, eluted with 3× Flag peptide ([…] in PBS, Sigma Aldrich), aliquoted, and stored at −80° C. For the purification of human PM20D1-flag, hPM20D1-flag plasmid (Origene) was transiently transfected into 293A cells. After two days, the media was changed, harvested 24 h later, concentrated, and purified exactly as described above.
(§3) In vitro PM20D1-catalyzed synthesis of N-acyl amino acids was measured by incubating purified PM20D1 protein with oleate (1.5 mM) and phenylalanine (0.1 mM) in PBS (to 100 μl final volume) at 37° C. for 1.5 hrs. In vitro PM20D1-catalyzed N-acyl amino acid hydrolysis was measured by incubating purified PM20D1 protein with the indicated N-acyl amino acid (0.1 mM) in PBS (to 100 μl final volume) at 37° C. for 1.5 hrs. Reactions were terminated by placing the vials at −80° C. and the products generated in vitro were analyzed by mass spectroscopy (MS).
(§4) Briefly, frozen serum (30 μl) for polar metabolomic analyses were extracted in 160 μl of 1:1 acetonitrile/methanol with inclusion of internal standard D3, ^15N-serine (1 nmol). Activity assays (100 μl) were extracted in 400 μl 1:1 acetonitrile/methanol. Following 30 s of thorough vortexing and 1 min of bath sonication, the polar metabolite fraction (supernatant) was isolated by centrifugation at 13,000×g for 10 min. Ten μl of this supernatant was analyzed by SRM-based targeted LC-MS/MS, or untargeted LC-MS.
(§5) For separation of polar metabolites, normal-phase chromatography was performed with a […] column (50 mm×4.60 mm, Phenomenex). Mobile phases were as follows: Buffer A, acetonitrile; Buffer B, 95:5 water/acetonitrile with 0.1% formic acid or 0.2% ammonium hydroxide with 50 mM ammonium acetate for positive and negative ionization mode, respectively. The flow rate for each run started at 0.2 ml/min for 2 min, followed by a gradient starting at 0% B and increasing linearly to 100% B over the course of 15 min with a flow rate of 0.7 ml/min, followed by an isocratic gradient of 100% B for 10 min at 0.7 ml/min before equilibrating for 5 min at 0% B with a flow rate of 0.7 ml/min. MS analysis was performed with an electrospray ionization (ESI) source on an Agilent 6430 QQQ LC—MS/MS. The capillary voltage was set to 3.5 kV, and the fragmentor voltage was set to 100 V. The drying gas temperature was 325° C., the drying gas flow rate was 10 l/min, and the nebulizer pressure was 45 psi. For polar targeted and untargeted metabolomic analysis, representative metabolites were quantified by SRM of the transition from precursor to product ions (corresponding to amino acid fragment) at associated collision energies. Several representative fragmentation ions are as follows: C18:1-Ala, 352>88; C18:1-Gly, 338>74; C18:1-Phe, 428>164; C18:1-Leu/Ile, 394>130; C20:4-Phe, 450>164; C20:4-Leu/Ile, 416>130. Untargeted LC-MS was performed by scanning a mass range of m/z 50-1200, and data were exported as mzdata files and uploaded to XCMSOnline (xcmsserver.nutr.berkeley.edu) to identify metabolites that were differentially changed. For targeted metabolomics analysis, metabolites were quantified by integrating the area under the peak and were normalized to internal standard values corresponding to 1 nmol D3, ^15N-serine.

mouse PM20D1 [3] = target: T1, mouse PM20D1; test: In vitro PM20D1-catalyzed synthesis of N-acyl amino acids; assay type: biochemical; conditions: for substrate of the PM20D1 synthase reaction: head group 100 μM, oleate or arachidonate 1.5 mM, C18:1-CoA 0.7 mM
Procedure: as §2, §3, §4, §5

Compound: CCCCCC[C@@H](O)C/C=C\CCCCCCCC(=O)N[C@@H](C)c1ccccc1 [(S)-alpha-methylbenzyl ricinoleamide, reference compound]
- uncoupled respiration in cells [1]: inactive

Compound: CCCCCCCC/C=C\CCCCCCCC(=O)N[C@@H](CCC(N)=O)C(=O)O [C18:1-Gln, Oleoyl-L-glutamine]
- uncoupling activity (uncoupled respiration) (C2C12 cells): possessed the uncoupling activity

Compound: CCCCCCCC/C=C\CCCCCCCC(=O)NCC(=O)O [C18:1-Gly]
- substrate of the PM20D1 hydrolysis reaction (mouse PM20D1 [2]): substrates

Compound: CCCCCCCC/C=C\CCCCCCCC(=O)N[C@@H](CCCCN)C(=O)O [C18:1-Lys, Oleoyl-L-lysine]
- uncoupling activity (uncoupled respiration) (C2C12 cells): not

Compound: CCCCCCCC/C=C\CCCCCCCC(=O)N[C@@H](CO)C(=O)O [C18:1-Ser]
- substrate of the PM20D1 hydrolysis reaction (mouse PM20D1 [2]): substrates

Compound: CCCCC/C=C\C/C=C\C/C=C\C/C=C\CCCC(=O)NC [N-arachidonoyl N-methyl amide, N-methyl N-arachidonoyl amide, reference compound]
- uncoupling activity (uncoupled respiration) (C2C12 cells): did not stimulate uncoupled respiration
- uncoupled respiration in cells [1]: inactive

Compound: CCCCC/C=C\C/C=C\C/C=C\C/C=C\CCCC(=O)NCCc1ccc(O)c(O)c1 [N-arachidonoyl dopamine, reference compound]
- uncoupling activity (uncoupled respiration) (C2C12 cells): did not stimulate uncoupled respiration
- uncoupled respiration in cells [1]: inactive

Compound: CCCCC/C=C\C/C=C\C/C=C\C/C=C\CCCC(=O)NCCCC(=O)O [N-arachidonoyl gamma amino butyric acid]
- uncoupling activity (uncoupled respiration) (C2C12 cells): stimulate uncoupled respiration
- uncoupled respiration in cells [1]: increased uncoupled respiration

Compound: CCCCC/C=C\C/C=C\C/C=C\C/C=C\CCCC(=O)N[C@@H](CO)C(=O)O [N-arachidonoyl serine]
- uncoupled respiration in cells [1]: increased uncoupled respiration

Compound: CCCCC/C=C\C/C=C\C/C=C\C/C=C\CCCC(=O)NCCS(=O)(=O)O [N-arachidonoyl taurine, reference compound]
- uncoupling activity (uncoupled respiration) (C2C12 cells): did not stimulate uncoupled respiration
- uncoupled respiration in cells [1]: inactive

Compound: CCCCC/C=C\C/C=C\CCCCCCCC(=O)N[C@@H](Cc1ccccc1)C(=O)O [N-linoleoyl phenylalanine]
- uncoupled respiration in cells [1]: increased uncoupled respiration

Compound: CCCCCCCC/C=C\CCCCCCCC(=O)NCCO [N-oleoyl ethanolamine, reference compound]
- uncoupled respiration in cells [1]: inactive
- substrate of the PM20D1 hydrolysis reaction (mouse PM20D1 [2]): does not hydrolyze
- substrate of the PM20D1 hydrolysis reaction (mouse PM20D1 [2]; listed as C18:1-EA): not a PM20D1 substrate

Compound: CCCCCCCC/C=C\CCCCCCCC(=O)N[C@@H](Cc1ccccc1)C(N)=O [N-oleoyl phenylalanine amide, (S)-N-(1-amino-1-oxo-3-phenylpropan-2-yl)oleamide]
- uncoupling activity (uncoupled respiration) (C2C12 cells): completely abrogated uncoupling activity
- uncoupled respiration in cells [1]: inactive

Compound: CCCCCCCC/C=C\CCCCCCCC(=O)N[C@@H](Cc1ccccc1)C(=O)OC [N-oleoyl phenylalanine methyl ester, Methyl oleoyl-L-phenylalaninate]
- uncoupling activity (uncoupled respiration) (C2C12 cells): completely abrogated uncoupling activity
- uncoupled respiration in cells [1]: inactive

Compound: CCCCCCCCCCCCCCCC(=O)N[C@@H](Cc1ccccc1)C(=O)OC [N-palmitoyl phenylalanine methyl ester]
- uncoupled respiration in cells [1]: inactive

Compound: N[C@@H](Cc1ccccc1)C(=O)O [Phe, phenylalanine]
- substrate of the PM20D1 synthase reaction (mouse PM20D1 [3]): most efficiently converted to its corresponding N-acyl amino acid product

Compound: CC(=O)[O-].CC(=O)[O-].[Zn+2] [Zn(OAc)2]
- effect on PM20D1 reaction rate (mouse PM20D1 [3]; 2 mM added to the reaction in PBS): does not augment reaction rate and may decrease the rate

Compound: NCCO [ethanolamine]
- substrate of the PM20D1 synthase reaction (mouse PM20D1 [3]): not substrates for the synthase reaction

Compound: N[C@@H](CCC(=O)O)C(=O)O [glutamate]
- substrate of the PM20D1 synthase reaction (mouse PM20D1 [3]): not substrates for the synthase reaction

Compound: CCCCC/C=C\C/C=C\C/C=C\C/C=C\CCCC(=O)N[C@H](C)CO [methanandamide, R(+)-methanandamide, reference compound]
- uncoupling activity (uncoupled respiration) (C2C12 cells): did not stimulate uncoupled respiration
- uncoupled respiration in cells [1]: inactive

Compound: CCCCC/C=C\C/C=C\C/C=C\C/C=C\CCCCOC(CO)CO [noladin ether, reference compound]
- uncoupled respiration in cells [1]: inactive
